According to patent US20260306421A1, “SYSTEMS AND METHODS FOR TRANSDERMAN PATCH DELIVERY” (VITAMAX PATCH WHOLESALER LLC, priority 2022, published 2026):
≈ marks a conversion by molar mass, not a printed value. Where two headings read alike, the source gives them in different places. Marks after values point to notes of the source that are not given here.

What was measured:
[1] = Solubility of cholecalciferol and cholecalciferol phosphate (disodium, acid); format: physicochemical; settings: read-out: Solubility
Method: Aliquots of cholecalciferol, cholecalciferol phosphate disodium, and cholecalciferol phosphate acid were added to a range of solvents including propylene glycol (PG), distilled water, methanol, ethyl acetate, ethanol, n-hexane, and the visual solubility was determined. A precise assessment of the saturation solubility was for some of the solvent systems was made using high-performance liquid chromatography (HPLC). In the HPLC solubility studies, an excess of each solute was added into 2 mL of each test solvent. The solutions were left stirring overnight at room temperature, (RT), 22° C. The saturation of the solutions was confirmed by the visual appearance of crystals and the drug suspensions were filtered through 0.2 μm cellulose acetate syringe filters, diluted with excess of mobile phase, and the solute concentration of each sample was assessed using HPLC.

[2] = Chemical stability of cholecalciferol and cholecalciferol phosphate disodium in donor, extraction and receiver fluids; format: physicochemical; settings: for remaining at 24 h: 37° C.
Method: To assess the chemical stability of the test agents in the liquids in which they were to be dissolved for the skin permeation experiments, 1 mg/mL solutions of cholecalciferol and cholecalciferol phosphate disodium in propylene glycol (PG) were prepared and incubated at 37° C. for 24 h. In addition, 100 μg/mL cholecalciferol in 50:50 PG:ethanol mixture, 100 μg/mL cholecalciferol phosphate disodium in 90:10 methanol:water mixture as well as and in 50% PG 40% Methanol: 10% water pH 3.2 (90:10) were also incubated at 37° C. for 24 hours.

[3] = Solubility of iron chloride hexahydrate and iron complexes (visual / assayed); format: physicochemical
Method: Due to the high number of test samples (6 complexes plus the starting material, iron chloride hexahydrate) a visual solubility screen was used to screen the solubility in a range of solvents. […] Quantitative determination was performed by either incubating the complex in excess in the solvent using a shaking 37° C. water bath for 48 h or sonicating it for 2 hours at 40° C. or leaving overnight on a 50° C. hot plate. Once incubation period was completed, the exact solubility in a particular solvent was assayed (using the iron assay) after centrifugation (i.e. assay iron content in the supernatant using the Ferrozine® assay).

[4] = Iron complex adhesive compatibility and loading screen; format: physicochemical
Method: Pre-formulation studies were performed to determine the compatibility of the iron complexes with a range of transdermal patch adhesives (Table 15).
The compatibility of the complexes with the patch adhesives was assessed by mixing and visually checking the clarity of the mixture.
In the adhesives that were computable with the iron complexes the maximum drug loading of the complexes in the adhesive following solvent evaporation was determined. This was achieved by mixing the drug, adhesive and co-solvents until a clear solution was obtained at different drug:adhesive ratios and placing few drops of the mixture onto the patch backing sheet, leaving it to dry for 3-4 h, and examining the formed film on the surface of the backings for evidence of drug crystals.
Following complete drying of the solvents, the adhesive layer was covered by a release liner, compressed, and then cut using 34 mm circular manual die cutter (FIG. 23).

[5] = Iron complex reservoir solvent solubility screening; format: physicochemical
Excerpt: Iron complex was again screened with a range of suitable excipients and solvents to formulate a solution of high concentration that could be loaded into the patch reservoir. The solvents screened included ethanol, methanol, PG, PEG400, SDS, Tween 85, Span 20, Kolliphore®, Natrsol M250 and dimethicone (Note: methanol is not suitable for formulation but it was used to increase solubility in the other solvents. It was evaporated prior to formulation testing).

[6] = Franz cell porcine skin permeation and deposition of iron from solutions; format: in vitro ADME
Method: The permeation of the iron complexes from the formulations into and across porcine skin mounted on Franz cells with a receiver fluid was tested (FIG. 4). This was based on the principles of the FDA, SUPAC-SS guidelines. The developed colorimetric assay method was used for iron quantification.
On the day of the experiment, the skin was defrosted. For the full thickness studies, the subcutaneous fat removed (2.5 mm thick) and for the dermatomes skin studies the tissued was dermatomed to a 1 mm thickness. The tissue was cut into the appropriate size sections (2.19±0.21 cm^2) and mounted between donor and receiver compartments of Franz diffusion cells with the SC facing the donor compartment. Each cell was sealed using parafilm and 12 mm magnetic stir bars were placed into the receiver compartment. The receiver compartment was filled with the desired receiver solution and the Franz cells were placed in a stirring water bath at 37° C. Cells were allowed to equilibrate for 30 min after which the receiver fluid using was mixed using a syringe and the “zero hour” sample was withdrawn from the arm and compensate with the same volume of fresh pre-warmed solution. Following zero-hour sampling, the donor solution was placed in the donor compartment and covered with parafilm. Samples were withdrawn and compensated with fresh receiver solution at set time intervals for a 24 h duration. The iron in each sample was quantified using the method specified in Section 2.2.2.1. […] There was no matrix interference noted in the assay. […] For iron maltol a 80:20 PG:water receiver was used along with a complementary calibration for iron assay (iron chloride in PG:water). The donor solution for the iron maltol made at pH 1.6 was 200 μL of 100 mg/mL complex in Transcutul®, for iron maltol made at pH 4 the donor solution was 200 μL of 23 mg/mL complex in PG and for iron maltol made at pH 4 the donor solution was 150 μL of 16 mg/mL complex in 7.5:1.5:1:1 water:PG:dimethicone:ethanol.
Once the permeation studies were completed the donor solutions were collected into bottles containing the extraction solution. This was followed by skin surface cleaning using four cotton buds, the first two were wetted by the extraction fluid and the second two were used dry. Then two tape striping procedures were performed using 2 tapes to remove any iron on the skin surface with the tape being added to the donor solution and cotton buds in the donor recover vial. For the full skin thickness skin, the Stratum corneum, the dermal and the epidermal layers were isolated in the same way as the recovery method (Section 2.3.2.1). Extraction fluid (50:50 PBS:ethanol) was then added to the tissues, 4 mL to the Stratum corneum, and 2 mL for each of the epidermis and dermis. For the dermatomed skin the whole skin section was chopped up and placed in a 2 mL extraction fluid (ethanol).
The Stratum corneum samples were placed on vibrating plate for a minimum of 2 h to extract the iron and then vortexed prior assay. The epidermis, dermis or dermatomed samples however were incubated with the extraction fluid for 1 h after which were transferred to Eppendorf tubes, one stainless steel 5 mm bead was added and the samples were loaded into the TissuLyser II (Qiagen, Germany) for 30-15 min at 30 Hz. The samples were then centrifuged (5 min at 13,000 rpm) and supernatant assayed.

[7] = Solubility of zinc chloride and zinc complexes (visual / HPLC); format: physicochemical
Method: Accurate measurement of the solubility was then repeated for some of the solvent systems by HPLC. In the HPLC solubility studies, an excess of the test agents was loaded into 2 mL of each test solvent. The solutions were left stirring overnight at 32° C. […] The drug suspensions were then centrifuged, the supernatant diluted, and each sample concentration was measured using HPLC.

[8] = Iron maltol made at pH 7.4, 10 mg complex, 62.5 μL PG, 60 μL ethanol, 125 μL water, 62.5 μL Kolliphore
[9] = Iron maltol made at pH 7.4, 10 mg complex, 125 μL PG, 60 μL ethanol, 62.5 μL water, 62.5 μL Kolliphore
[10] = donor liquid paraffin:ethanol, 24 h

## C=C1CC[C@H](O)C/C1=C/C=C1\CCC[C@]2(C)[C@@H]([C@H](C)CCCC(C)C)CC[C@@H]12 [Cholecalciferol, reference compound]
[1]; organic solvent or mixture, solvent PG
  Solubility: 7800 ± 190 µg/mL (≈ 20.3 mM)
[1]; solvent PG + 5% water
  Solubility: 2400 ± 2 µg/mL
[1]; solvent PG + 10% water
  Solubility: 1100 ± 5 µg/mL
[1]; solvent PG + 20% water
  Solubility: 700 ± 4 µg/mL
[2]; PG
  remaining at 24 h: 93 ± 13%
[2]; conclusions
  chemical stability (in words): indication of chemical instability
[2]; extraction fluid 50:50 PG:ethanol
  remaining at 24 h: 92 ± 8%

## CCc1occc(=O)c1[O-].CCc1occc(=O)c1[O-].CCc1occc(=O)c1[O-].[Fe+3] [Iron ethyl maltol made at pH 4, iron ethyl maltol]
[3]; PEG400
  Solubility of complex: 15 mg/mL Iron
  Solubility, equivalent elemental iron: (1.8 mg/mL
[3]; PG
  Solubility of complex: 8.3 mg/mL Iron
  Solubility, equivalent elemental iron: 1 mg/ml mg/mL

## CCc1occc(=O)c1[O-].CCc1occc(=O)c1[O-].CCc1occc(=O)c1[O-].[Fe+3] [Iron ethyl maltol made at pH 7.4, iron ethyl maltol]
[3]; PEG400
  Solubility of complex (visual): <8 mg/mL Iron
[3]; PG
  Solubility of complex: 2.7 mg/mL Iron
  Solubility, equivalent elemental iron: 320 µg/mL
[3]; Saline
  Solubility of complex: 360 μg/mL Iron
  Solubility, elemental iron: (44 μg/mL
[4]; drug loading 2.5-10%, no permeation enhancer
  Solubility in DURO-TAK 9301 patch: Precipitated
[4]; drug loading 4%, 2 mg PEG400
  Solubility in DURO-TAK 9301 patch: Clear
[4]; drug loading 4%, 2 mg PG
  Solubility in DURO-TAK 9301 patch: Clear
[4]; drug loading 4%, no permeation enhancer
  Solubility in DURO-TAK 9301 patch: Clear
[4]; drug loading 5%, 2.5 mg Transcutol
  Solubility in DURO-TAK 9301 patch: Precipitated
[4]; drug loading 5%, 2.6 mg PEG400
  Solubility in DURO-TAK 9301 patch: Precipitated
[4]; drug loading 5%, 5 mg PEG400
  Solubility in DURO-TAK 9301 patch: Precipitated
[4]; drug loading 5%, 5 mg Transcutol
  Solubility in DURO-TAK 9301 patch: Clear
[4]; drug loading 6%, 3.3 mg PEG400
  Solubility in DURO-TAK 9301 patch: Precipitated
[4]; drug loading 7.5%, 4 mg Transcutol
  Solubility in DURO-TAK 9301 patch: Precipitated
[4]; drug loading 7.5-10%, 4-5.5 mg PG
  Solubility in DURO-TAK 9301 patch: Precipitated
[4]; drug loading 10-7.5%, 5.5-4 mg PEG400
  Solubility in DURO-TAK 9301 patch: Precipitated

## Cc1occc(=O)c1[O-].Cc1occc(=O)c1[O-].Cc1occc(=O)c1[O-].[Fe+3] [Iron maltol, iron maltol]
[3]; Chloroform
  Solubility of complex (visual): ≥20 mg/mL Iron
[3]; Ethanol
  Solubility of complex (visual): ≥6 mg/mL Iron maltol*
[3]; Ethyl acetate
  Solubility of complex (visual): <6 mg/mL Iron maltol*
[3]; Hexane
  Solubility of complex (visual): <6 mg/mL Iron maltol*
[3]; Methanol
  Solubility of complex (visual): ≥18 mg/mL Iron
[3]; Oleic acid
  Solubility of complex (visual): <6 mg/mL Iron maltol*
[3]; Propanol
  Solubility of complex (visual): <6 mg/mL Iron maltol*
[3]; Triaceten
  Solubility of complex (visual): <6 mg/mL Iron maltol*
[5]; Iron maltol made at pH 4, 10 mg complex, 50 μL 2% Nitrosol, 50 μL PG
  Observation (solubility, complex): 22000 µg/mL
[5]; Iron maltol made at pH 4, 20 mg complex, 0.1 mL Kolliphore, 0.1 mL PEG400
  Observation: Precipitated
[5]; Iron maltol made at pH 4, 20 mg complex, 0.1 mL Kolliphore, 0.1 mL PEG400, 10% SDS
  Observation: Precipitated
[5]; Iron maltol made at pH 4, 20 mg complex, 0.2 mL Kolliphore
  Observation: Precipitated
[5]; Iron maltol made at pH 4, 100 mg complex, 2 mL methanol, 1 mL 80:20 PEG400:PEG1000, precipitate upon methanol evaporation
  Observation: Precipitate
[5]; [8]
  Observation: Clear
  Visual solubility (complex): (32 mg/mL
[5]; Iron maltol made at pH 7.4, 10 mg complex, 62.5 μL PG, 62.5 μL water, 125 μL Kolliphore
  Observation: Precipitated
[5]; [9]
  Observation: Clear
  Visual solubility (complex): (32 mg/mL
[5]; Iron maltol made at pH 7.4, 20 mg complex, 6 μL Span 20, 0.125 mL ethanol, 0.5 mL PG
  Observation: Precipitated
[5]; Iron maltol made at pH 7.4, 30 mg complex, 6 μL Tween 85, 0.125 mL ethanol, 0.5 mL PG
  Observation: Precipitated
[5]; Iron maltol made at pH 7.4, 40 mg complex, 12 mg SDS, 0.125 mL ethanol, 0.5 mL PG
  Observation: Precipitated
[4]
  compatibility with adhesives: only compatible with DURO-TAK 9301
[4]; methanol stock solution 10 mg/mL
  (maximum) complex loading achieved in adhesive: 4%
[4]; methanol stock solution 18 mg/mL
  complex loading achieved in adhesive patch: 8.5%

## CCC(=O)[O-].CCC(=O)[O-].CCC(=O)[O-].[Fe+3] [Iron propionate made at pH 4, iron propionate]
[6]; applied as solution
  iron passing through the skin: neither the patch nor the solution allowed iron to pass through the skin
[6]; applied to the skin as a PG solution
  deposition into the skin: 8 μg/cm^2
[6]; solutions, 24 h
  permeation and deposition in the skin: permeated and deposited in the skin

## [Cl-].[Cl-].[Zn+2] [Zinc Chloride, Zinc chloride, reference compound]
[7]; solvent PEG400, visual solubility (*)
  Elemental zinc solubility (visual): ~2.7* mg/mL
[7]; solvent PG
  Elemental zinc solubility evaluated by HPLC: 2700 µg/mL

## iron oleate
[6]; donor Miglyol, 24 h
  deposition, all layers combined: 3.7 μg/cm^2
  elemental iron permeated the skin: 2.5±1.8 μg/cm^2
[6]; [10]
  deposition, all layers combined: 5.3 μg/cm^2
  elemental iron permeated the skin: 4.4±1.5 μg/cm^2
